In assay [1] the target is T1, human pancreatic lipase (hPL) (Homo sapiens, UniProt P16233).
T1 sequence (P16233 17-465): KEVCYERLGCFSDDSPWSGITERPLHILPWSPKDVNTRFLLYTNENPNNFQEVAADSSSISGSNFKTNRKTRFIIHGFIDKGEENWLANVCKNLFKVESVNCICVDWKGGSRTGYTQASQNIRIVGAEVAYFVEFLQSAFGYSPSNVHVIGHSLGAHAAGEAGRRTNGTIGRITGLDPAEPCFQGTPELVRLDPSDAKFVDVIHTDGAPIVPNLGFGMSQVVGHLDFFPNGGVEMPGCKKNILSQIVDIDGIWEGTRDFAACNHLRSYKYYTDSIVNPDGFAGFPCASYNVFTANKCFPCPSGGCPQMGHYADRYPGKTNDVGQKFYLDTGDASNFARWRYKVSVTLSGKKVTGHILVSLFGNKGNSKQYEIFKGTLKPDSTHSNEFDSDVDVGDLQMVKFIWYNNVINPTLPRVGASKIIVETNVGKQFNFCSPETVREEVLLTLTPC
Kind of assay: fluorescence-based hPL inhibition assay. It counts as biochemical. The conditions noted are these: 4-MUO 5 μM, 37 °C, 20 min; for IC50: pIC50, hPL-catalyzed 4-MUO hydrolysis; for pIC50: hPL-catalyzed 4-MUO hydrolysis.

Assay [2] has as its system α-glucosidase. The conditions noted are these: ref [50], [51], [52]; cited from earlier work.
In assay [3] the target is T1, human pancreatic lipase (hPL). The experiment in a line: inhibition kinetics against hPL-catalyzed 4-MUO hydrolysis. The conditions noted are these: for Inhibition mode: Lineweaver-Burk and secondary plots. In kind it is biochemical.

Values joined by “and” are separate entries in the source; they are usually repeats but may differ in a detail not shown here. Identical values can stand only once.

Consider `O=C(O[C@@H]1Cc2c(O)cc(O)cc2O[C@@H]1c1ccc(O)c(O)c1)c1cc(O)c(O)c(O)c1` [ECG, epicatechin gallate], for which, in assay [1], the IC50 is 162 nM. The “inhibitory effects against α-glucosidase” value in assay [2] is on record as “strong inhibitory effects”.
`Oc1cc(O)c2c(c1)O[C@H](c1ccc(O)c(O)c1)[C@H](O)C2` [Epicatechin, epicatechin] gave an IC50 in assay [1] of over 100000 nM.
On to `O=C1C[C@@H](c2ccc(O)c(O)c2)Oc2cc(O)cc(O)c21` [Eriodictyol, eriodictyol], for which, in assay [1], the IC50 is over 100000 nM.
`COc1cc(/C=C/C(=O)O)ccc1O` [Ferulic acid, ferulic acid] returned a pIC50 in assay [1] of under 4.
With `O=c1c(O)c(-c2ccc(O)cc2)oc2cc(O)cc(O)c12` [Kaempferol, kaempferol], the IC50 in assay [1] was 27500 nM.
In assay [1], `O=c1cc(-c2ccc(O)c(O)c2)oc2cc(O)cc(O)c12` [Luteolin, luteolin] gave an IC50 of 776 nM. Also, in assay [2], the “inhibitory effects against α-glucosidase” value is on record as “strong inhibitory effects”.
Molecule `O=c1cc(-c2ccc(O)c(O)c2)oc2cc(O[C@@H]3O[C@H](CO)[C@@H](O)[C@H](O)[C@H]3O)cc(O)c12` [Luteolin-7-O-β-D-glucoside, luteolin-7-O-β-D-glucoside] displayed a pIC50 in assay [1] of under 4.
On to `O=C(OC[C@H]1O[C@@H](OC(=O)c2cc(O)c(O)c(O)c2)[C@H](OC(=O)c2cc(O)c(O)c(O)c2)[C@@H](OC(=O)c2cc(O)c(O)c(O)c2)[C@@H]1OC(=O)c1cc(O)c(O)c(O)c1)c1cc(O)c(O)c(O)c1` [PGG, 1,2,3,4,6-penta-O-galloyl-β-D-glucopyranose], for which 25.7 nM corresponded to half-maximal inhibition in assay [1] (IC50). The Inhibition mode result in assay [3] is on record as “non-competitive”. In addition, the inhibitory constant (Ki) in assay [3] (inhibition constant (Ki)) was 12 nM and < 100 nM.
In the case of `O=c1c(O)c(-c2ccc(O)c(O)c2)oc2cc(O)cc(O)c12` [Quercetin, quercetin], the “inhibitory effects against α-glucosidase” value in assay [2] is reported as “strong inhibitory effects”.
Regarding `O=c1c(O[C@@H]2O[C@H](CO)[C@@H](O)[C@H](O)[C@H]2O)c(-c2ccc(O)c(O)c2)oc2cc(O)cc(O)c12` [Quercetin-3-O-glucoside, quercetin-3-O-glucoside], the concentration for half-maximal inhibition (IC50) in assay [1] was over 100000 nM.
Regarding `O=C(O)[C@H]1O[C@@H](Oc2c(-c3ccc(O)c(O)c3)oc3cc(O)cc(O)c3c2=O)[C@H](O)[C@@H](O)[C@@H]1O` [Quercetin-3-O-glucuronide, quercetin-3-O-glucuronide], the negative-log IC50 (pIC50) in assay [1] was under 4.
Consider `C[C@@H]1O[C@@H](Oc2c(-c3ccc(O)c(O)c3)oc3cc(O)cc(O)c3c2=O)[C@H](O)[C@H](O)[C@H]1O` [Quercitrin, quercitrin], for which the IC50 in assay [1] is over 100000 nM.
In turn, `C[C@@H]1O[C@@H](Oc2cc(O)c3c(=O)c(O)c(-c4ccc(O)cc4)oc3c2O)[C@H](O)[C@H](O)[C@H]1O` [Rhodionin, rhodionin] came in with a half-inhibitory concentration (IC50) in assay [1] of over 100000 nM.
For `O=C(O)/C=C/c1ccc(O)cc1` [p-coumaric acid], the IC50 in assay [1] was over 100000 nM.
For catechin gallate [CG], the Inhibition mode entry in assay [3] is on record as “non-competitive”.

A word on the IC50: it is the concentration that gives 50% inhibition. A low value points to greater potency. Usually pIC50 stands for the negative decadic logarithm of the IC50, by convention in mol/L. A low value points to a large IC50. The term Ki denotes the equilibrium dissociation constant of an inhibitor or competing ligand from its target. A low value points to a stronger hold on the target.

(Values after paper PMC9463489 (Journal of Pharmaceutical Analysis, 2022).)
